Data reported in paper PMC5515859, “Metabolism of F18, a Derivative of Calanolide A, in Human Liver Microsomes and Cytosol” (Frontiers in Pharmacology, 2017).

Key:
human liver cytosol = test: Incubation of F18 with human liver cytosol, metabolite profiling; assay type: in vitro ADME; set-up: key: +: Metabolite detected; −: metabolite not detected; details: F18 50 μM, 1 h
Experimental: (§1) A stock solution of F18 (5 mM) was prepared in methanol. F18 (50 μM) was incubated with RLMs/DLMs/MLMs/HLMs and HLcy (0.5 mg protein/mL) in 50 mM Tris-HCl buffer containing 5 mM MgCl2 (pH 7.4) in a final volume of 200 μL. The final concentration of methanol in the incubation system was 1% (v/v). After 3 min of preincubation at 37°C, the reactions were initiated by the addition of NADPH-regenerating system (10-mM β-NADP, 100-mM 6-G-P and 10-U/mL 6-G-P-DH) or NADH. After incubation for 1 h, the reactions were terminated by the addition of two volumes of ice-cold acetonitrile. Samples without NADPH or NADH were included as controls. The incubation mixture was vortexed and centrifuged at 13,300 × g for 5 min. A 10 μL aliquot of the supernatant was injected into an LC-tandem mass spectrometer (LC-MS/MS) for analysis.
(§2) Metabolic profiling studies were performed with a Finnigan TSQ Quantum MS instrument with an electrospray ionization probe and a Finnigan SURVEYOR HPLC system (Thermo Finnigan, San Jose, CA, USA). HPLC was performed with a Zorbax SB-C18 column (2.1 × 100 mm, 3.5 μm, Agilent Corporation, CA, USA) with a column temperature of 35°C and a flow rate of 200 μL/min. F18 and its metabolites were eluted using a linear gradient method with a mobile phase consisting of solvent A (water with 0.1% formic acid) and solvent B (acetonitrile with 0.1% formic acid). […] The samples were analyzed in the positive-ionization mode, and the TSQ capillary temperature was set to 350°C. Nitrogen was used as both the sheath gas and the auxiliary gas and was delivered at 30 psi and 15 psi, respectively. The spray voltage and tube lens were set to 3,800 V and 123 V, respectively. The full-width half maximum (FWHM) was set to 0.7. MS data were acquired in the selective ion-recording mode or by collecting full scans from 200 to 600 m/z at 1 scan/s. The mass spectrometer and HPLC system were operated using Xcalibur 2.0.7 software.

dog liver microsomes = test: Incubation of F18 with dog liver microsomes, metabolite profiling; assay type: in vitro ADME, beagle dog; set-up: key: +: Metabolite detected; −: metabolite not detected; details: F18 50 μM, 1 h
Experimental: as §1, §2

recombinant FMO1 = molecular target: T1, recombinant FMO1 (Homo sapiens, UniProt Q01740); test: Metabolism of F18 by cDNA-expressed FMO1; assay type: in vitro ADME; details: F18 10 μM, 50 pmol/mL enzyme, 1 h
T1 construct: purchased BD Gentest (Woburn, MA, USA)
T1 sequence (Q01740 1-532): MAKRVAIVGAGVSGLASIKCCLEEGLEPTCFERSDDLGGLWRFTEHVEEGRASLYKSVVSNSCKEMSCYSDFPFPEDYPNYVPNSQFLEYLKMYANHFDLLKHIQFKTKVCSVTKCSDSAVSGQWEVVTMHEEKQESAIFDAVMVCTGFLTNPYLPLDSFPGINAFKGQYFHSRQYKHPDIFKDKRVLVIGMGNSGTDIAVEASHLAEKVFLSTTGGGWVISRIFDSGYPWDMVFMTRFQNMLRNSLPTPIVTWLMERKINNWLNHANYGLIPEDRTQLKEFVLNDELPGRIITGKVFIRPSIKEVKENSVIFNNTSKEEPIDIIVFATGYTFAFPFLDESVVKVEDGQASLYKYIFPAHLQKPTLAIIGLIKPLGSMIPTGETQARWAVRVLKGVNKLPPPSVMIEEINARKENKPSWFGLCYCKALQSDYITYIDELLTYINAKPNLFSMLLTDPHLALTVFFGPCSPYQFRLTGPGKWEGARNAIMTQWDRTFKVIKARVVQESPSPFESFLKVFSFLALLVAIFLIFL
Experimental: To further verify the roles of CYPs and FMOs in the metabolism of F18 in humans, F18 (10 μM) was incubated individually with 14 cDNA-expressed human CYP isozymes (50-pmol/mL CYP1A1, CYP1A2, CYP2A6, CYP2B6, CYP2C8, CYP2C9, CYP2C19, CYP2D6, CYP2E1, CYP2J2, CYP3A4, CYP4F2, CYP4F3, and CYP4A11) and three cDNA-expressed FMO enzymes (50-pmol/mL FMO1, FMO3, and FMO5). The incubation conditions were similar to those used for HLMs (described above), with the exception of the incubating time […]. Samples incubated without NADPH were used as the negative control.

VSV-G/HIV-1 viruses = test: microbe, parasite or virus in culture; assay type: cell-based; details: for IC50: Human immunodeficiency virus 1, HEK-293T, 48 h, read-out: IC50, inhibition of HIV-1 replication
[1] = Pharmacokinetics in rats after oral administration of F18; assay type: in vivo, Sprague-Dawley rats; details: oral F18 50 mg/kg; for Cmax / Tmax / half-life / MRT last / MRT inf: Sprague-Dawley; for Cmax / Tmax / half-life / MRT last / MRT inf / AUC0−∞ / Systemic exposure relative to that of the parent drug: rat blood; for Cmax / Tmax / half-life / MRT last / MRT inf / AUC0−∞: mean ± SD, n = 5; for MRT last: read-out: MRT0−t; for MRT inf: read-out: MRT0−∞; for Systemic exposure relative to that of the parent drug: from AUC0−∞
Experimental: To investigate the pharmacokinetic characteristics of F18 and its major metabolites, five rats were intragastrically administered F18 at a dose of 50 mg/kg. Blood samples were collected in heparinized ice-bath tubes from the suborbital veniplex at 0, 0.25, 0.5, 1, 2, 4, 6, 8, 12, 16, and 24 h postdose. The blood concentrations of F18 and its major metabolites were determined by LC-MS/MS and their pharmacokinetic parameters were calculated through non-compartmental analysis using WinNonlin Version 6.1 (Pharsight, Mountain View, CA, USA).
For the blood samples, F18, M1, M3-1, and M3-2 were simultaneously quantified using the following elution gradient: Solvent B was maintained at 15% for 2 min, increased to 85% in 1 min, maintained at 85% for 5 min, decreased to 15% in 0.5 min and maintained at 15% for 4.5 min. Detection was also performed using a Finnigan TSQ Quantum MS instrument with an electrospray ionization probe operated in the positive mode.
Calibration curves for F18 and its metabolites were fitted via linearly weighted (1/x^2) least-squares regression. The correlation coefficient values of F18 and its metabolites in the incubations were >0.99 for the range 10–5,000 nM; the LOQ was 10 nM with a signal-to-noise ratio >10:1; the accuracies were 90–113% and the precisions (RSD) were <10.5%. In the blood samples, the correlation coefficient values for F18, M1, M3-1, and M3-2 were >0.99 for the range 5–2,000 nM; the LOQ was 5 nM with the signal-to-noise ratio >10:1; the accuracies were 91–112% and the precisions (RSD) were <9.6%. In addition, no interference was found in the retention time of each analyte in both the incubated samples and the blood samples.

| Compound | F18 metabolite detected in HLcy with NADH (human liver cytosol) | F18 metabolite detected in HLcy with NADPH (human liver cytosol) | F18 metabolite detected in DLM (dog liver microsomes) | Metabolite detected in incubation with recombinant FMO1 (recombinant FMO1) | Potency against HIV-1 relative to the parent compound (VSV-G/HIV-1 viruses) | Cmax [1] [nM] | Tmax [1] [h] | half-life [1] [h] | MRT last [1] [h] | MRT inf [1] [h] | Concentration in rat blood (in words) [1] | AUC0−∞ [1] | IC50 (VSV-G/HIV-1 viruses) [nM] | Systemic exposure relative to that of the parent drug [1] [%] |
| --- | --- | --- | --- | --- | --- | --- | --- | --- | --- | --- | --- | --- | --- | --- |
| CCCc1cc(=O)oc2c3c(c4c(c12)OC(C)(C)C=C4)OC(CO)CC3=O (centres unmarked) [Metabolite M1] | − | − | + | not detected | one fifth | 274 ± 111 | 4 ± 1.6 | 4.8 ± 2.1 | 8.4 ± 0.5 | 9.4 ± 1.5 | detected in high concentrations | 3,290 h^*nM |  |  |
| CCCc1cc(=O)oc2c3c(c4c(c12)OC(C)(C)C=C4)O[C@H](CCl)C[C@H]3O (relative stereo) [Metabolite M3-1, trans-12-hydroxy F18] | + | + | + | detected |  | 165 ± 50.9 | 4 ± 2.3 | 3.4 ± 0.64 | 8.6 ± 0.6 | 8.9 ± 0.7 | detected in high concentrations | 1,965 h^*nM | 34 | ~38 |
| CCCc1cc(=O)oc2c3c(c4c(c12)OC(C)(C)C=C4)O[C@H](CCl)C[C@@H]3O (relative stereo) [Metabolite M3-2, cis-12-hydroxy F18] | + | + | + | detected |  | 219 ± 51.2 | 4 ± 2.3 | 3 ± 0.4 | 8.8 ± 1.2 | 13.2 ± 7.2 | detected in high concentrations | 3,353 h^*nM | 51 | ~65 |
